Assay [1] has as its system mice. The assay can be described thus: Forced swim test (FST) in mice. To be noted: for Effect on immobility time, given alone at sub-effective dose: i.p., fluoxetine 10, reboxetine 5, bupropion 2.5, HBK-14 1.25, HBK-15 0.625 mg/kg; for Decrease of immobility time: vs control. It counts as in vivo. The procedure: The studies were carried out on mice according to the method described by Porsolt et al.. The animals were dropped individually into glass cylinders (height 25 cm, diameter 10 cm) containing 10 cm of water, maintained at 23–25°C. Mice were left in the cylinder for 6 min. […] The mouse was judged to be immobile when it remained floating passively in the water.

For assay [2], the system named is mice. In words: Four-plate test in mice. It counts as in vivo.
In assay [3] the test system is rats. The assay can be described thus: Elevated plus maze (EPM) test in rats. The format is in vivo. From the text:
Plus-maze apparatus (an automated device produced by Campden Instruments Ltd, UK) made of durable, high density, nonporous black plastic, elevated to a height of 50 cm, consisted of two open arms (50 cm x 10 cm) and two closed arms (50 cm x 10 cm, and 30 cm high walls), arranged so that the two arms of each type were opposite each other. Floor of the plus-maze was made of infrared transparent material what means that there are no visible sensors. The plus-maze was placed in a darkened room; only the centre of the apparatus was illuminated with low-density light (30 lux measured on the maze level). Plus-maze apparatus was connected to PC software by control chassis. Each rat was gently placed in the centre of the plus-maze, facing one of the closed arms, immediately after a 5-min adaptation period in a plastic black box (60 cm x 60 cm x 35 cm). During a 5-min test period, automated Motor Monitor System recorded the number of entries into the closed and open arms, the time spent in either type of the arms. After each trial the maze was wiped clean. Studied compounds and reference drug were administered (i.p.) 30 min before the test.

Assay [4] deals with rats. In words: FST in rats. The format is in vivo.
Description: The experiment was carried out according to the method of Detke et al. [33]. On the first experimental day rats were placed individually in Plexiglas cylinders (40 cm height, 18 cm in diameter) containing 30 cm of water maintained at 25°C for 15 min. After that time the rats were placed for 30 min under a 60-W bulb to dry. 24 hours after the pre-test, the rats were placed again in the cylinders and the total duration of immobility (when a rat remained floating in the water without struggling and was making only those movements necessary to keep its head above water), swimming (when a rat was making active swimming motions, more than necessary to merely maintain its head above water, e.g. moving around in the cylinder) and climbing (when a rat was making active movements with its forepaws in and out of the water, usually directed against the walls) was recorded during the whole 5-min test period. Fresh water was used for each animal.
The target of assay [5] is α1-adrenoceptor. The assay can be described thus: Radioligand binding, [3H]-prazosin, rat cerebral cortex. The following applies: read-out: Adrenergic Ki α1.
In assay [6] the target is T1, human 5-HT2A receptor (Homo sapiens, UniProt P28223).
T1 construct: expressed in transfected cells; host or cells: CHO-K1
T1 sequence (P28223 whole entry): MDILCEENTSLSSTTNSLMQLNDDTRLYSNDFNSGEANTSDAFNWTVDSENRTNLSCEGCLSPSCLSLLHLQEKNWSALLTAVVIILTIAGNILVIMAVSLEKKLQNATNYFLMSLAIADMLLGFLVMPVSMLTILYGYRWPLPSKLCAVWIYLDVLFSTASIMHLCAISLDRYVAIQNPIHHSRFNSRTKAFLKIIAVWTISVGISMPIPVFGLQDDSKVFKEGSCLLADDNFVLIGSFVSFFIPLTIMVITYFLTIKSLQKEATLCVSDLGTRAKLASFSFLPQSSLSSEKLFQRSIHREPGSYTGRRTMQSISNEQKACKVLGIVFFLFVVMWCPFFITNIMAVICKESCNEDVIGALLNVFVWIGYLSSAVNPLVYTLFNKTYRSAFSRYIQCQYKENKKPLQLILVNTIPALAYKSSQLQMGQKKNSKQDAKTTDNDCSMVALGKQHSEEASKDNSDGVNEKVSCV
The assay can be described thus: Radioligand binding, [3H]-ketanserin, CHO-K1 cell membranes. The following applies: read-out: Serotonergic Ki 5-HT2A.
Description: Radioligand binding was performed using membranes from CHO-K1 cells stably transfected with the human 5-HT2A receptor. Monolayer of CHO-K1 cells with stable expression of human receptor after reaching about 90% confluence was washed twice with PBS. After that the cells were scrapped and collected to centrifuge tubes. About 20 volumes of assay buffer was added to each tube and cells were homogenized (3 x 10 sec., 24 000 rpm; Ultra Turrax T25B homogenizator, IKA Labortechnik, USA). Tubes were centrifuged (20 min., 30 000 x g, about 4°C; 3K30 centrifuge, Sigma Laborzentrifugen, Germany). Supernatant was discarded and appropriate volume of assay buffer with 10% glycerol was added and homogenization was repeated. Membrane suspension was aliquoted into cryotubes, freezed in liquid nitrogen and stored until assay in -80°C. Membrane protein concentration was determined by BCA method. Immediately before assay frozen membranes were thawed quickly (about 35°C), mixed and homogenized (60 sec., 24,000 rpm) with appropriate volume of assay buffer to reach desired membrane protein concentration. All assays were carried out in duplicates. […] Microplate was covered with a sealing tape, mixed and incubated for 60 minutes at 27°C. […] Radioactivity was counted in MicroBeta2 scintillation counter (PerkinElmer) at approximately 30% efficiency. Inhibition constants (Ki) were calculated.

In assay [7] the target is 5-HT1A receptors. The following applies: authors' previous studies; cited from earlier work.
Assay [8] addresses 5-HT7 receptors. To be noted: authors' previous studies; cited from earlier work.
The target of assay [9] is 5-HT6 receptors. The following applies: authors' former studies; cited from earlier work.
Assay [10] concerns the target T2, Serotonin transporter (SERT) (Rattus norvegicus, UniProt P31652).
T2 construct: Rat cerebral cortex was homogenized; from tissue; host or cells: rat cerebral cortex
The assay can be described thus: Radioligand binding, [3H]-citalopram, rat cerebral cortex. The following applies: read-out: Serotonergic Ki SERT.
Description: The supernatant was decanted and pellet was re-suspended in 30 volumes of buffer and centrifuged again. The resulting pellet was re-suspended in the same quantity of the buffer and centrifuged third time in the same conditions. […] Ki values were calculated.

Assay [11] concerns the target T3, human D2 receptor (Homo sapiens, UniProt P14416).
T3 construct: expressed in transfected cells; host or cells: CHO-K1
The assay can be described thus: Radioligand binding, [3H]-methylspiperon, CHO-K1 cell membranes. To be noted: read-out: Dopaminergic Ki D2.
Description: Radioligand binding was performed using membranes from CHO-K1 cells stably transfected with the human D2 receptor. All assays were carried out in duplicates. […] (+)-butaclamol (10 μM) was used to define nonspecific binding. Microplate was covered with a sealing tape, mixed and incubated for 60 minutes at 37°C. The reaction was terminated by rapid filtration through GF/C filter mate pre-soaked with 0.3% polyethyleneimine for 30 minutes. Ten rapid washes with 200 μl 50 mM Tris buffer (4°C, pH 7.4) were performed using automated harvester system Harvester-96 MACH III FM (Tomtec). The filter mates were dried at 37°C in forced air fan incubator and then solid scintillator MeltiLex was melted on filter mates at 90°C for 5 minutes. Radioactivity was counted in MicroBeta2 scintillation counter (PerkinElmer) at approximately 30% efficiency. Ki values were calculated.

Assay [12] addresses T4, human serotonin 5-HT7 receptor (Homo sapiens, UniProt P34969).
T4 construct: host or cells: CHO-K1 (with CRE-bla reporter)
In words: cAMP functional assay (LANCE Ultra TR-FRET), CHO-K1 cells. The following applies: for Kb / Antagonist activity weaker than reference antagonist SB-269970 / Emax: 5-HT7; for Kb: Cheng-Prusoff equation, read-out: Antagonist mode Kb; for Antagonist activity weaker than reference antagonist SB-269970: range over HBK-14 and HBK-15; for Emax: CHO-K1, mean of two independent experiments in duplicate, read-out: Agonist mode Emax. The format is cell-based.
Description: CHO-K1 cells were transfected with a beta lactamase (bla) reporter gene under control of the cyclic AMP response element (CRE) (Life Technologies).
Thawed cells were resuspended in stimulation buffer (HBSS, 5 mM HEPES, 0.5 IBMX, and 0.1% BSA at pH 7.4) at 2x10^5 cells/ml for 5-HT7 receptor. The same volume (10 μl) of cell suspension was added to tested compounds for 5-HT7 receptor. Samples were loaded onto a white opaque half area 96-well microplate. […] The agonist and antagonist were added simultaneously. Cell stimulation was performed for 1h at room temperature. After incubation, cAMP measurements were performed with homogeneous TR-FRET immunoassay using the LANCE Ultra cAMP kit (PerkinElmer, USA). 10 μl of EucAMP Tracer Working Solution and 10 μl of ULight-anti-cAMP Tracer Working Solution were added, mixed, and incubated for 1 h. The TR-FRET signal was read on an EnVision microplate reader (PerkinElmer, USA).

The test system of assay [13] is levels of serotonin. More on the design: method as in PMID 9044239. To be noted: mice, 3-day treatment 200 mg/kg; cited from earlier work.
Setting [14] is: 1.25 mg/kg i.p. 30 min before test.
Where [15] appears, read: 2.5 mg/kg i.p. 30 min before test.
Setting [16] is: i.p., ANOVA over the doses tested.
Setting [17] is: 2.5 mg/kg i.p., pCPA interaction experiment (Fig 8A, 8B).
[18] abbreviates: 5 mg/kg i.p. 30 min before test.
The mark [19] stands for this setting: pCPA 200 mg/kg i.p. once daily for 3 days.

The values below come from paper PMC4640659, “Antidepressant- and Anxiolytic-Like Effects of New Dual 5-HT1A and 5-HT7 Antagonists in Animal Models” (PLoS ONE, 2015).

In general, Ki refers to the equilibrium dissociation constant of an inhibitor or competing ligand from its target. A word on the IC50: it is the concentration that inhibits the measured activity by half. A word on the Kb: it is the equilibrium dissociation constant of an antagonist, usually derived from a functional assay. In general, Emax refers to the greatest response seen or fitted, relative to the assay's reference.

Entries after “also recorded” stand apart in the source; their conditions may differ. Counter-ions that a name gives are not always drawn. A value given as a limit tells only on which side of the number the result lay.

T4 sequence (P34969 whole entry): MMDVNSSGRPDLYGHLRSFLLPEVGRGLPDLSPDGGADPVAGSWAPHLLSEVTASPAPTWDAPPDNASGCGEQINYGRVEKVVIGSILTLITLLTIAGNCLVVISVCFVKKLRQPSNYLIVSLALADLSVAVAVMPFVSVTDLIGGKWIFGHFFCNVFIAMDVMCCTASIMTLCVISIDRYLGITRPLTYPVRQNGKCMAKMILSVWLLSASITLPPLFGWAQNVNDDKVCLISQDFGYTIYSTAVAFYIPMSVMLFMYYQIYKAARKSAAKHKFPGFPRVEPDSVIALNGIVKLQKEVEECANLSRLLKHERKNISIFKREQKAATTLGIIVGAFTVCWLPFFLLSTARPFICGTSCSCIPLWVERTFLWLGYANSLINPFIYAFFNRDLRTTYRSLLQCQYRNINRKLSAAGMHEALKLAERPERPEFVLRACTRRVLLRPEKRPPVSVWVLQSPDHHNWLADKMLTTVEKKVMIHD
T3 sequence (P14416 whole entry): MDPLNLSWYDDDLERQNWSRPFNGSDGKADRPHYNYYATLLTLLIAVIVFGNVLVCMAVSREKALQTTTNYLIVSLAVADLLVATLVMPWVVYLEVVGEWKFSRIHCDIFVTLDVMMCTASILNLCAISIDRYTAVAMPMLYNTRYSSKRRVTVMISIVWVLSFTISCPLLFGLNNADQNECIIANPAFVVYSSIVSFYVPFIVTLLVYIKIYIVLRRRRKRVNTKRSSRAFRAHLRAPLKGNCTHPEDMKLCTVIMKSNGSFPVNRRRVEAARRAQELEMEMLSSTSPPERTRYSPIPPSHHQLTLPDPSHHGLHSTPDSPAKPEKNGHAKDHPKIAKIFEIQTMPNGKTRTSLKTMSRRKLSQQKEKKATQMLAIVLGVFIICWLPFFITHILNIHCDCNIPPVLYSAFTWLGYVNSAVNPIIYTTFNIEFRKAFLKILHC
T2 sequence (P31652 whole entry): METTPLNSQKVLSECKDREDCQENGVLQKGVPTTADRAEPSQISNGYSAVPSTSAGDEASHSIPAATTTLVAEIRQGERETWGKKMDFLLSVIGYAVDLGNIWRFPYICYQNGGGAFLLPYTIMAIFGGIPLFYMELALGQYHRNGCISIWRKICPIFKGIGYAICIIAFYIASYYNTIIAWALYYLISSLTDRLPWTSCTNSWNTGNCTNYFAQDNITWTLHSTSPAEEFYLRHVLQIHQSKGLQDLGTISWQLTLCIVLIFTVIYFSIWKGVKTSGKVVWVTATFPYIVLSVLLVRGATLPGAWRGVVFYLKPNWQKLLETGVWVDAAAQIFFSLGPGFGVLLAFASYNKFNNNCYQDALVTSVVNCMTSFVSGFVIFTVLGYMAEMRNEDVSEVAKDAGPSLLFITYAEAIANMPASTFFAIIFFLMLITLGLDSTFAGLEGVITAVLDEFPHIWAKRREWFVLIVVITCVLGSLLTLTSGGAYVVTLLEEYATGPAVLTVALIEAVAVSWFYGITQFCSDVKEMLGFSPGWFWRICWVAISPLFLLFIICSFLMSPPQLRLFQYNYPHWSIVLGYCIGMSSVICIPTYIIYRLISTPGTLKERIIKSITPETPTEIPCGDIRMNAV

For the molecule `CNCCC(Oc1ccc(C(F)(F)F)cc1)c1ccccc1` (stereo not shown) [fluoxetine, reference compound], in [1], the “Effect on immobility time, given alone at sub-effective dose” value (from here on “Effect on immobility time, given alone”) is “did not affect”.

Take `CN1C(=O)CN=C(c2ccccc2)c2cc(Cl)ccc21` [Diazepam, diazepam, reference compound]: the “Increase of the number of punished crossings” value in assay [2] (setting [14]) came to 62%. Further, the “Increase of the number of punished crossings” value in assay [2] (setting [15]) is 73%. Further, in [3] (setting [15]), the “Increase of the percentage of open-arm entries” value worked out at 131% and the “Increase of the percentage of time spent in the open arms” value stood at 672%.

In [4] (30 mg/kg i.p.), `CN(C)CCC[C@@]1(c2ccc(F)cc2)OCc2cc(C#N)ccc21` [Escitalopram, escitalopram, reference compound] had an Increase of swimming of 171%. The “Decrease of immobility time” value in assay [4] (30 mg/kg i.p. 30 min before test) is given as 48%; in assay [1] (setting [15]) it was 42%. The “Effect on duration of climbing” value in assay [4] (setting [16]) is “no influence”.

On to `COc1ccccc1N1CCN(CCN(C(=O)C2CCCCC2)c2ccccn2)CC1.Cl.Cl.Cl` [WAY-100635, N-{2-[4-(2-methoxyphenyl)-1-piperazinyl]ethyl}-N-(2-pyridinyl)cyclohexanecarboxamide trihydrochloride, reference compound], for which, in [2] (WAY-100635 0.1 mg/kg s.c., 0.1 mg/kg), the “Effect on the number of punished crossings, given alone” value is “had no effect; also recorded: showed no effect”. The “Effect on duration of immobility time, given alone” value in [1] (WAY-100635 0.1 mg/kg s.c.) is “had no effect”.

In the case of `CC(NC(C)(C)C)C(=O)c1cccc(Cl)c1` (stereo not shown) [bupropion, reference compound], in [1], the “Effect on immobility time, given alone” value is recorded as “did not affect”.

Regarding `Cc1ccc(N(CC2=NCCN2)c2cccc(O)c2)cc1` [Phentolamine, phentolamine, reference compound], in assay [5], the Ki came out at 9 nM.

With `CCOc1ccccc1OC(c1ccccc1)C1CNCCO1` (stereo not shown) [reboxetine, reference compound], the “Effect on immobility time, given alone” value in [1] was “did not affect”.

Regarding `COc1ccccc1N1CCN(CCOCCOc2c(C)cccc2Cl)CC1` [HBK-15, 2-[2-(2-chloro-6-methylphenoxy)ethoxy]ethyl-4-(2-methoxyphenyl)piperazynine dihydrochloride], the Ki was 109 nM in assay [6]; below 1 nM in assay [7]; 13 nM in assay [5]; 34 nM in assay [8]; 9620 nM in assay [9]; 529 nM in assay [10]. In [11], the inhibitory constant (Ki) was 54 nM. The “Increase of the number of punished crossings” value in assay [2] (setting [15]) is on record as 52%; in [2] (2.5 mg/kg i.p., WAY-100635 interaction experiment (Fig 8C, 8D), 2.5 mg/kg), 111%; in [2] (setting [17]), 109%; in assay [2] (setting [18]), 88%. The “Increase of swimming time” value in assay [4] (1.25 mg/kg i.p.) worked out at 166%; in [4] (2.5 mg/kg i.p.), 191%. Moreover, the “Decrease of immobility time” value in assay [4] (setting [14]) came to 30%; in [4] (setting [15]), 38%; in assay [1] (setting [14]) it was 40%; in assay [1] (setting [15]), 42%; in [1] (setting [18]), 46%. Further, the “Effect on duration of climbing” value in [4] (setting [16]) is listed as “no significant influence”. For the same molecule, the “Increase of the percentage of open-arm entries” value in assay [3] (setting [18]) is 89%. Further, the “Increase of the percentage of time spent in the open arms” value in assay [3] (setting [18]) came out at 198%. Moreover, the Reduction of immobility in assay [1] (1.25 mg/kg i.p., pCPA interaction experiment (Fig 5B)) is recorded as 22%. Moreover, the “Effect on immobility time, given alone” value in [1] is “none of tested compounds (HBK-14 1.25 mg/kg and HBK-15 0.625 mg/kg) administered alone affected the mouse immobility”. Besides, in assay [12], the IC50 was 220 nM. For the same molecule, the Kb in assay [12] came out at 69 nM. Also, in [12], the “Antagonist activity weaker than reference antagonist SB-269970” value is recorded as 51-147 fold. Besides, the Emax in assay [12] was 0%.

As for `CN(C)CCCN1c2ccccc2CCc2ccccc21` [Imipramine, imipramine, reference compound], the “Decrease of immobility time” value in assay [4] (10 mg/kg i.p. 30 min before test) turned out to be 51%; in assay [1] (setting [18]), 50%. Moreover, the “Effect on duration of swimming” value in assay [4] (setting [16]) was “no significant effect”.

Regarding `N[C@@H](Cc1ccc(Cl)cc1)C(=O)O` (racemic) [pCPA, p-Chlorophenylalanine, reference compound], the “Effect on the number of punished crossings, given alone” value in assay [2] (setting [19]) is recorded as “showed no effect; also recorded: had no effect”. Further, in [1] (setting [19]), the “Effect on immobility, given alone” value is given as “did not influence immobility time”. For the same molecule, in [13], the “Reduction of the levels of serotonin in cortex” value is recorded as “around 30%”, the “Reduction of the levels of serotonin in diencephalon” value was around 35%, the “Reduction of the levels of serotonin in midbrain” value is around 24% and the “Reduction of the levels of serotonin in pons & medulla” value was around 34%.

Take `COc1ccccc1N1CCN(CCOCCOc2c(C)cccc2C)CC1` [HBK-14, 1-{2-[2-(2,6-dimethlphenoxy)ethoxy]ethyl}-4-(2-methoxyphenyl)piperazynine hydrochloride]: the Ki in assay [6] is 264 nM; in assay [7] it was 41 nM; in assay [5], 23 nM; in assay [8] it was 156 nM; in [9] it was 9970 nM; in [10], 3500 nM. Besides, the Ki in assay [11] came to 219 nM. Besides, the entries for the “Increase of the number of punished crossings” value in assay [2] (setting [15]), in assay [2] (setting [17]) and in [2] (setting [18]) were 68%, 105% and 87%, respectively. In addition, in assay [4] (5 mg/kg i.p.), the “Increase of swimming behaviour” value came out at 185%. In addition, the “Decrease of immobility time” value in [4] (setting [18]) amounted to 38%; in assay [1] (setting [15]), 30%; in [1] (setting [18]), 31%. The “Effect on duration of climbing” value in assay [4] (setting [16]) was “no significant effect”. In addition, the “Increase of the percentage of open-arm entries” value in assay [3] (setting [15]) stood at 90%. Moreover, the “Increase of the percentage of time spent in the open arms” value in [3] (setting [15]) was 591%. The Reduction of immobility in assay [1] (2.5 mg/kg i.p., pCPA interaction experiment (Fig 5A)) stood at 25%. Besides, the “Effect on immobility time, given alone” value in [1] is “none of tested compounds (HBK-14 1.25 mg/kg and HBK-15 0.625 mg/kg) administered alone affected the mouse immobility”. Besides, the IC50 in assay [12] was 77 nM. Moreover, in assay [12], the Kb was 24 nM. Also, the “Antagonist activity weaker than reference antagonist SB-269970” value in assay [12] was 51-147 fold. The Emax in [12] worked out at 19%.
